Values quoted from earlier work as cited in patent US20220154222A1, “NOVEL NUCLEIC ACID MODIFIERS” (THE BROAD INSTITUTE, INC., priority 2019, published 2022).

system: Factor VII gene silencing in hepatocytes; details: LNP siRNA systems containing the ionizable cationic lipid; hepatocytes in vivo

Row | Molecule | gene silencing potency, rank order of the series
1 | 1,2-dilinoleyloxy-keto-N,N-dimethyl-3-aminopropane [DLinKDMA] | DLinKC2-DMA>DLinKDMA>DLinDMA>>DLinDAP
2 | CCCCC/C=C\C/C=C\CCCCCCCC(=O)OCC(CN(C)C)OC(=O)CCCCCCC/C=C\C/C=C\CCCCC (stereo not shown) [DLinDAP, 1,2-dilineoyl-3-dimethylammonium-propane] | DLinKC2-DMA>DLinKDMA>DLinDMA>>DLinDAP
3 | CCCCC/C=C\C/C=C\CCCCCCCCOCC(CN(C)C)OCCCCCCCC/C=C\C/C=C\CCCCC (stereo not shown) [DLinDMA, 1,2-dilinoleyloxy-3-N,N-dimethylaminopropane] | DLinKC2-DMA>DLinKDMA>DLinDMA>>DLinDAP
4 | CCCCC/C=C\C/C=C\CCCCCCCCC1(CCCCCCCC/C=C\C/C=C\CCCCC)OCC(CCN(C)C)O1 (stereo not shown) [DLinKC2-DMA, 1,2-dilinoleyl-4-(2-dimethylaminoethyl)-[1,3]-dioxolane] | DLinKC2-DMA>DLinKDMA>DLinDMA>>DLinDAP
